Reference: patent US20090137626A1, “Pharmaceutical Composition Containing PPARgamma Agonist” (priority 2005, published 2009)
Structures can show the parent of a compound that is named as a salt.

System: Male Zucker diabetic fatty (ZDF) rats
Assay: Test Example 1: elimination of blood lactate after intravenous sodium lactate load (blood lactate AUC 0 to 60 minutes)
Type: in vivo
Details: sodium lactate 0.1 g/kg i.v., FIG. 1
Experimental: The animals of Group B and Group B+A were given free access for 1 week to Compound B mixed in powdered feed (FR-2 Powdered Laboratory Rodent Diet, Funabashi Farm Co., Ltd.) to a concentration of 0.001%. Animals of the control group and Group A were given free access to powdered feed for the same time period.
All animals were administered sodium lactate at 0.1 g/kg into the caudal vein one hour after oral administration. Blood samples were collected from the caudal vein immediately before and 5, 15, 30, 45 and 60 minutes after administration of sodium lactate, and blood lactate levels were measured using the Lactate Pro LT-1710 (Arkray, Inc.). The areas under the curve for blood lactate concentration (blood lactate AUC) were calculated from blood lactate levels from 0 to 60 minutes measured for each animal. A lower blood lactate AUC value indicates a more rapid elimination of lactate from the blood.

COc1ccc2nc(COc3ccc(CC4SC(=O)NC4=O)cc3)n(C)c2c1 (centres unmarked) [Compound B, 5-{4-[(6-methoxy-1-methyl-1H-benzimidazol-2-yl)methoxy]benzyl}thiazolidine-2,4-dione hydrochloride]
blood lactate AUC (Group B+A: Compound B 0.001% in feed for 1 week, then Compound A 300 mg/kg oral, relative to Group A (P<0.05, t-test)): decreased significantly
blood lactate AUC (Group B: Compound B 0.001% in powdered feed for 1 week, alone, compared with control group (P<0.05, t-test)): decreased significantly
